Test results reported in ChEMBL document CHEMBL2424579, “Quinazolin-4-one derivatives as selective histone deacetylase-6 inhibitors for the treatment of Alzheimer's disease” (J Med Chem, 2013).
Activity calls are given as the source filed them. The calls are words filed in the database; no cut-off is given here.

What was measured:
PC-12 [1] = assay: Inhibition of HDAC6 in rat PC12 cells assessed as acetylation of histone H3 at 10 uM after 48 hrs by Western blotting analysis; format: cell-based
PC-12 [2] = assay: Inhibition of HDAC6 in rat PC12 cells assessed as induction of alpha-tubulin acetylation at 10 uM after 48 hrs by Western blotting analysis; format: cell-based
PC-12 [3] = assay: Induction iof GAP-43 protein expression in rat PC12 cells after 48 hrs by Western blotting analysis; format: functional, cell-based
SH-SY5Y [4] = assay: Induction of neurite outgrowth in human SH-SY5Y cells at 10 uM after 5 days; format: functional, cell-based
PC-12 [5] = assay: Induction of neurite outgrowth in rat PC12 cells at 10 uM after 5 days; format: functional, cell-based
[6] = molecular target: T1, Amyloid-beta precursor protein (Homo sapiens, UniProt P05067); assay: Inhibition of amyloid beta aggregation (unknown origin) after 4 hrs by thioflavin S assay in absence of Zn2+
[7] = molecular target: T1, Amyloid-beta precursor protein; assay: Inhibition of amyloid beta aggregation (unknown origin) after 4 hrs by thioflavin S assay in presence of Zn2+
Homo sapiens [8] = organism: Homo sapiens; assay: Selectivity index, ratio of IC50 for human recombinant HDAC1 to IC50 for human recombinant HDAC6
Homo sapiens [9] = organism: Homo sapiens; assay: Selectivity index, ratio of IC50 for human recombinant HDAC8 to IC50 for human recombinant HDAC6
Histone deacetylase 11 = molecular target: T2, Histone deacetylase 11 (Homo sapiens, UniProt Q96DB2); assay: Inhibition of human recombinant HDAC11 expressed in baculovirus/sf9 cells using RHKKAc as substrate
T2 sequence (Q96DB2 whole entry): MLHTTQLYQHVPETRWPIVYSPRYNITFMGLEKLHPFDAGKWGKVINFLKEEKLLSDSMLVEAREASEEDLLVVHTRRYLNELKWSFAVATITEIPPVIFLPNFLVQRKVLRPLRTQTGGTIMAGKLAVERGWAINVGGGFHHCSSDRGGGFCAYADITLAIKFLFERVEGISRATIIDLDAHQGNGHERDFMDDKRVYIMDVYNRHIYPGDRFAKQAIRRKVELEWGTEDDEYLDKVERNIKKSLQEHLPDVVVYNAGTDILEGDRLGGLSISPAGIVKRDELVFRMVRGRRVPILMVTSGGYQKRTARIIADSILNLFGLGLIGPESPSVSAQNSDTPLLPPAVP

[10] = molecular target: T3, Protein deacetylase HDAC6 (Homo sapiens, UniProt Q9UBN7); assay: Inhibition of human recombinant HDAC6 expressed in baculovirus/sf9 cells using RHKKAc as substrate
T3 sequence (Q9UBN7 whole entry): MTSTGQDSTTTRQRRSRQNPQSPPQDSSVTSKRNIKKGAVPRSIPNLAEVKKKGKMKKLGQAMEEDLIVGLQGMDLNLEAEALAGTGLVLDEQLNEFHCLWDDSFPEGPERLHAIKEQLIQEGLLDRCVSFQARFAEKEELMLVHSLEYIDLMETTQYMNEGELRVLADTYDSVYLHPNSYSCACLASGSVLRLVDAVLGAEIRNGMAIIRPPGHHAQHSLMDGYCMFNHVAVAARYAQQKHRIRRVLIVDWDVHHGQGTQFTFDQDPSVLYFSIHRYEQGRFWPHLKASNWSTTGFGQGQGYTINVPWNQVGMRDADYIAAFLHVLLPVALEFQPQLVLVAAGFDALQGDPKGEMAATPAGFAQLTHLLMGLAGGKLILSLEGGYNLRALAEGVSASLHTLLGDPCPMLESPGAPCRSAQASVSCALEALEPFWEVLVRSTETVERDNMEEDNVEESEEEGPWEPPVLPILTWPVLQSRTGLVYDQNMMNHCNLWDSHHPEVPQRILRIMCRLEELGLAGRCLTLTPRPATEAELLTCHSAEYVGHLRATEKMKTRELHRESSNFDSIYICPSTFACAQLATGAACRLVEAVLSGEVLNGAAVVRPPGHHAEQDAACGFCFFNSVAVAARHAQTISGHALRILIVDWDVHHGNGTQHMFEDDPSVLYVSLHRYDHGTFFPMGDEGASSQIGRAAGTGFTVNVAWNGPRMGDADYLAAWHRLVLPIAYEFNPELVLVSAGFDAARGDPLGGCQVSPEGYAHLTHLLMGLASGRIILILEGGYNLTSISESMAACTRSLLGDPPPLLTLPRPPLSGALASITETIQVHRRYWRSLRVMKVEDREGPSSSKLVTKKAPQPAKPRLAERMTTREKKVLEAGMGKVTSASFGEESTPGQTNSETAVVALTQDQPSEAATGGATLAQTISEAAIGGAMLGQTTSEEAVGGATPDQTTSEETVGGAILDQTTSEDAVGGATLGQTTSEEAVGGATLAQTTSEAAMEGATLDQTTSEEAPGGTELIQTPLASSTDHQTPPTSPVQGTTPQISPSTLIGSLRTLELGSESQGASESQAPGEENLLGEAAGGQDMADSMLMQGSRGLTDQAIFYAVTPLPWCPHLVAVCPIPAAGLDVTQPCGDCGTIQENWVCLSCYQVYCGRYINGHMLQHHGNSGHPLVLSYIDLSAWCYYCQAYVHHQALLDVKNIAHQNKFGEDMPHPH

[11] = molecular target: T4, Polyamine deacetylase HDAC10 (Homo sapiens, UniProt Q969S8); assay: Inhibition of human recombinant HDAC10 expressed in baculovirus/sf9 cells using RHKKAc as substrate
T4 sequence (Q969S8 whole entry): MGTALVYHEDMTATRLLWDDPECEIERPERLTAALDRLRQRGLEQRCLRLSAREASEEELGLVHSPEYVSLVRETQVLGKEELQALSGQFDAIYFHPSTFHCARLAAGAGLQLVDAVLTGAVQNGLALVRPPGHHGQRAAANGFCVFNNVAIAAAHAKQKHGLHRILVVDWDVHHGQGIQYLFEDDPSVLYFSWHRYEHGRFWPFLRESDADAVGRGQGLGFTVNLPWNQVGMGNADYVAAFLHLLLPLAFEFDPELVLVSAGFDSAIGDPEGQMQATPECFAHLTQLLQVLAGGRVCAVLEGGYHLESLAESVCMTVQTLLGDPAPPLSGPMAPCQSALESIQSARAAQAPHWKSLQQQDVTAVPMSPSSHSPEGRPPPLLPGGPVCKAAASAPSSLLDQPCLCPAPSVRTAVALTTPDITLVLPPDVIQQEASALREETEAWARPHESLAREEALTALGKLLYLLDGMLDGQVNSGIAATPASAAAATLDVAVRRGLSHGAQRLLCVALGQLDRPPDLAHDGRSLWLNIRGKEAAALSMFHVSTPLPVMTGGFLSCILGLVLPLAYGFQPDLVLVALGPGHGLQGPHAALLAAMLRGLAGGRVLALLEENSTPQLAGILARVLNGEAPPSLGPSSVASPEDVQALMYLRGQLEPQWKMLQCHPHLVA

Histone deacetylase 8 = molecular target: T5, Histone deacetylase 8 (Homo sapiens, UniProt Q9BY41); assay: Inhibition of human recombinant HDAC8 expressed in baculovirus/sf9 cells using RHKAcKAc as substrate
T5 sequence (Q9BY41 whole entry): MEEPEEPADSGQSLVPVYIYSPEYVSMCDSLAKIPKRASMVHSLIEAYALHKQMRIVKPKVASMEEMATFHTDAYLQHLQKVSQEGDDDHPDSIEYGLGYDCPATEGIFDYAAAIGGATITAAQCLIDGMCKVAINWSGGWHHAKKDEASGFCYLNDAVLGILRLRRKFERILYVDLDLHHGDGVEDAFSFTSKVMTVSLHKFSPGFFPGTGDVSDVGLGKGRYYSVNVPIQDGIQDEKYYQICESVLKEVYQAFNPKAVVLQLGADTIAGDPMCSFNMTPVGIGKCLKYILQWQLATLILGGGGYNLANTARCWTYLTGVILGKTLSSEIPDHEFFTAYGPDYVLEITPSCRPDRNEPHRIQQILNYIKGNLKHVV

Histone deacetylase 1 = Histone deacetylase 1 (Homo sapiens, UniProt Q13547); assay: Inhibition of human recombinant HDAC1 expressed in baculovirus/sf9 cells using RHKKAc as substrate
Histone deacetylase 2 = Histone deacetylase 2 (Homo sapiens, UniProt Q92769); assay: Inhibition of human recombinant HDAC2 expressed in baculovirus/sf9 cells using RHKKAc as substrate
Vero = assay: Cytotoxicity against african green monkey Vero cells at 25 uM; format: cell-based; conditions: chlorocebus sabaeus
[12] = Cytotoxicity against human SH-SY5Y cells at 25 uM; format: cell-based
PC-12 [13] = assay: Cytotoxicity against rat PC12 cells at 25 uM; format: cell-based; conditions: pc-12, 25 µM
SH-SY5Y [14] = assay: Increase of synaptic activity in human SH-SY5Y cells after 5 days by fluorescence assay; format: functional, cell-based; conditions: 120 h
SH-SY5Y [15] = assay: Induction of neurite outgrowth in human SH-SY5Y cells after 5 days; format: functional, cell-based; conditions: 120 h
PC-12 [16] = assay: Increase of synaptic activity in rat PC12 cells after 5 days by fluorescence assay; format: functional, cell-based; conditions: PC-12, 120 h
PC-12 [17] = assay: Induction of neurite outgrowth in rat PC12 cells after 5 days; format: functional, cell-based; conditions: PC-12, 120 h
[18] = molecular target: Poly [ADP-ribose] polymerase 1 (Homo sapiens) (UniProt P09874); assay: Inhibition of PARP1 (unknown origin) up to 25 uM
PC-12 [19] = assay: Induction iof GAP-43 protein expression in rat PC12 cells at 0.1 uM after 48 hrs by Western blotting analysis; format: functional, cell-based
PC-12 [20] = assay: Inhibition of HDAC6 in rat PC12 cells assessed as induction of alpha-tubulin acetylation after 48 hrs by Western blotting analysis; format: cell-based
Mus musculus [21] = assay: Antialzheimer activity in wild type learning-impaired Balb/c mouse model with hippocampal lesions at 10 mg/kg, ip administered for 30 days by rotarod test relative to vehicle-treated control; conditions: Hippocampus, TDE = time-dependent effect
Mus musculus [22] = assay: Antialzheimer activity in wild type learning-impaired Balb/c mouse model with hippocampal lesions assessed as increase in acetylated alpha-tubulin level in hippocampus region at 10 mg/kg, ip administered for 30 days by rotarod test

T1 sequence (P05067 whole entry): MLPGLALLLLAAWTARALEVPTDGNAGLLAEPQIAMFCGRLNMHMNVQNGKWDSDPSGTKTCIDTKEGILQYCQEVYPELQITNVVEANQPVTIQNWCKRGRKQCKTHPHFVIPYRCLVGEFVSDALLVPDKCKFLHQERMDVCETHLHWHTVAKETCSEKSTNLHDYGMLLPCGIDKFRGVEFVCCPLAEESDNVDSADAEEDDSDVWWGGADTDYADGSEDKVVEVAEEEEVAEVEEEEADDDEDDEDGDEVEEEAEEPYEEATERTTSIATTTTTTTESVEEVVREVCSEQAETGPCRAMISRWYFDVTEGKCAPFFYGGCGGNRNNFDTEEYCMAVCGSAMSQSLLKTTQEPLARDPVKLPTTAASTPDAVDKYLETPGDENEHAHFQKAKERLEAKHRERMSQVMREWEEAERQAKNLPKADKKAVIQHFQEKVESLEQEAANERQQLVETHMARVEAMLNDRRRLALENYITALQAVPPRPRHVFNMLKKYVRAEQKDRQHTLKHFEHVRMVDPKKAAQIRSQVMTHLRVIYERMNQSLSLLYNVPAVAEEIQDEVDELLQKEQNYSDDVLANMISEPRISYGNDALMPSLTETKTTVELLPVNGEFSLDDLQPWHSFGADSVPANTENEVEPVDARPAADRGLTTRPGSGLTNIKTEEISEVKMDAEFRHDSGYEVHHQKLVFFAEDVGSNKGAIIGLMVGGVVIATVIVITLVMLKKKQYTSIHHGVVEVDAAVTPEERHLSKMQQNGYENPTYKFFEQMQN
Sequence of Poly [ADP-ribose] polymerase 1 (Homo sapiens) (P09874 whole entry): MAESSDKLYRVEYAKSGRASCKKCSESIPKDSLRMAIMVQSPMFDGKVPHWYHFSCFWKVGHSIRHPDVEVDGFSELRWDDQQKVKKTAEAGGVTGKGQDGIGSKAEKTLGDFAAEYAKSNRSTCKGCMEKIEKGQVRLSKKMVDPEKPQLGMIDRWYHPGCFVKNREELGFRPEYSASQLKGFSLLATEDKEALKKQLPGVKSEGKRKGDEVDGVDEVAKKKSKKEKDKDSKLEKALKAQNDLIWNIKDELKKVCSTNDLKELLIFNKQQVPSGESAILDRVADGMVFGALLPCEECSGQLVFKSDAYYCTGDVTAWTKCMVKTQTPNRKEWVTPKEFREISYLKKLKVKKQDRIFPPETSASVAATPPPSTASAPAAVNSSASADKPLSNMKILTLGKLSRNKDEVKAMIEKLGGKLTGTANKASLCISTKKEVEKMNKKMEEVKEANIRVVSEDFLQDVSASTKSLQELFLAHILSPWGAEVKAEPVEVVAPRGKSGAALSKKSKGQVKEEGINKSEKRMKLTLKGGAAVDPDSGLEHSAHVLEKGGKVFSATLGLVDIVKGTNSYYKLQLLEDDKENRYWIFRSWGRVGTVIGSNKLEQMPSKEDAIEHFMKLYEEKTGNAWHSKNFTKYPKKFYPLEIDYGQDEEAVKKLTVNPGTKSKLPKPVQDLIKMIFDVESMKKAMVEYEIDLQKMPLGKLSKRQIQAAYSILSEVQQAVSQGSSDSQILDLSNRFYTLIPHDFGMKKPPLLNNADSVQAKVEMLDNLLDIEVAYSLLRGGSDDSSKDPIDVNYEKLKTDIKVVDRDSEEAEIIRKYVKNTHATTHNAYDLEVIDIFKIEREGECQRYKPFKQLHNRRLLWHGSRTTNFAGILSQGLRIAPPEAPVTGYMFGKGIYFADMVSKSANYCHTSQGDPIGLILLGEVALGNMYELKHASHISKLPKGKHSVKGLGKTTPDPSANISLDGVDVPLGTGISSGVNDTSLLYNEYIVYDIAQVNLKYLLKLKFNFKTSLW
Sequence of Histone deacetylase 2 (Q92769 whole entry): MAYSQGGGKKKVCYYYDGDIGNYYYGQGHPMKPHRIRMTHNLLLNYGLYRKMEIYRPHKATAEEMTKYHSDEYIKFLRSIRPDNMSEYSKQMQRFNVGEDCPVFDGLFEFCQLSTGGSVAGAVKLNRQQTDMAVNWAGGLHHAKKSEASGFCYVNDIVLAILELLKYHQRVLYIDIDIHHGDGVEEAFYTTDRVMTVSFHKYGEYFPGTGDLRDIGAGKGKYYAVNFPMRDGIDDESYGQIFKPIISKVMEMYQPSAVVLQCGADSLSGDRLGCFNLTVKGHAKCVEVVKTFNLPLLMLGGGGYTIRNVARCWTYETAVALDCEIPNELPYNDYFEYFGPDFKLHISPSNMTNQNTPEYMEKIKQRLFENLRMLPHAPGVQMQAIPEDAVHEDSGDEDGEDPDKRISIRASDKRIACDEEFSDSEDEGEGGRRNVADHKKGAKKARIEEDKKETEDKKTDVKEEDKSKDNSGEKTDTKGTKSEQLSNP
Sequence of Histone deacetylase 1 (Q13547 whole entry): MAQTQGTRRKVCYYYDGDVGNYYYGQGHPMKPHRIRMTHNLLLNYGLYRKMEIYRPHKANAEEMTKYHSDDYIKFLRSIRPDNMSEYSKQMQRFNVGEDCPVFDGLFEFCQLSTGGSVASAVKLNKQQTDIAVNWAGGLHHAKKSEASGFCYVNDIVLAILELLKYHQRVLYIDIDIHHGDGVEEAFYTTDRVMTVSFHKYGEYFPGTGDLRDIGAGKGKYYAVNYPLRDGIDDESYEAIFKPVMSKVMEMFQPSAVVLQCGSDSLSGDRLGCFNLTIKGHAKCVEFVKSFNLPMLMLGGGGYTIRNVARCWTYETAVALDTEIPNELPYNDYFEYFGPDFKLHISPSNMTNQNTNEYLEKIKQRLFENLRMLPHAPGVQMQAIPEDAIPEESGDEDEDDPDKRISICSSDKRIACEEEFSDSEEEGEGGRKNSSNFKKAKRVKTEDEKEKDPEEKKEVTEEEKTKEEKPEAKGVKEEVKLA

Row | Compound | Activity (PC-12 [3]) | Activity (SH-SY5Y [4]) | Activity (PC-12 [5]) | IC50 [6] [µM] | IC50 [7] [µM] | Ratio IC50 (Homo sapiens [8]) | Ratio IC50 (Homo sapiens [9]) | IC50 (Histone deacetylase 11) [µM] | IC50 [10] [µM] | IC50 [11] [µM] | IC50 (Histone deacetylase 8) [µM] | IC50 (Histone deacetylase 1) [µM] | IC50 (Histone deacetylase 2) [µM] | Activity (Vero) | Activity [12] | Activity (PC-12 [13]) | inhibition [18] | also measured
1 | CC(/C=C/C(=O)NO)=C\[C@@H](C)C(=O)c1ccc(N(C)C)cc1 | Dose-dependent effect | Active | Active | – | – | – | – | – | – | – | – | – | – | – | – | – | – | inhibition (PC-12 [1]): Active; inhibition (PC-12 [2]): Active
2 | Cc1nc2cccc(/C=C/C(=O)NO)c2c(=O)n1-c1ccccc1 | – | – | – | > 50 | > 50 | 10 | < 1 | > 10 | 1.92 | > 10 | 1.06 | 18.6 | > 10 | Non-toxic | Non-toxic | Non-toxic | – | –
3 | CCc1nc2cc(Cc3ccc(C(=O)NO)cc3)ccc2c(=O)n1CCc1ccccc1 | Dose-dependent effect | Active | Active | – | – | – | – | 1.32 | 0.009 | – | 0.173 | 4.85 | – | Non-toxic | Non-toxic | Non-toxic | inactive | inhibition (PC-12 [1]): Active; inhibition (PC-12 [2]): Active; EC50 (SH-SY5Y [14]): 5.5 µM; EC50 (SH-SY5Y [15]): 9.8 µM; EC50 (PC-12 [16]): 3.6 µM; EC50 (PC-12 [17]): 9.3 µM
4 | Cc1nc2cc(/C=C/C(=O)NO)ccc2c(=O)n1-c1ccccc1 | Dose-dependent effect | Active | Active | – | – | – | – | 1.35 | 0.088 | 17.5 | 3.88 | – | 1.61 | Non-toxic | Non-toxic | Non-toxic | inactive | Activity (PC-12 [19]): Active; inhibition (PC-12 [20]): Dose-dependent effect; Activity (Mus musculus [21]): tde; Activity (Mus musculus [22]): Active
5 | CCc1nc2cc(F)c(/C=C/C(=O)NO)cc2c(=O)n1CCc1ccccc1 | Dose-dependent effect | Active | Active | – | – | – | – | 4.68 | 0.008 | – | 0.766 | 1.94 | 5.68 | Non-toxic | Non-toxic | Non-toxic | inactive | Activity (PC-12 [19]): Active; inhibition (PC-12 [20]): Dose-dependent effect; EC50 (SH-SY5Y [14]): 4.3 µM; EC50 (SH-SY5Y [15]): 8.6 µM; EC50 (PC-12 [16]): 3.3 µM; EC50 (PC-12 [17]): 7.2 µM
6 | Cc1nc2c(/C=C/C(=O)NO)cccc2c(=O)n1-c1ccccc1 | – | – | – | > 50 | > 50 | 70 | < 1 | > 10 | 0.69 | 29.8 | 0.42 | 48.5 | > 10 | Non-toxic | Non-toxic | Non-toxic | – | –
7 | Cc1nc2ccc(/C=C/C(=O)NO)cc2c(=O)n1-c1ccccc1 | – | – | – | > 50 | > 50 | 65 | 19 | 5.22 | 0.032 | 5.14 | 0.609 | 2.09 | 7.48 | Non-toxic | Non-toxic | Non-toxic | – | –
